Target: human full length recombinant Mps-1 kinase (Homo sapiens (Human), UniProt P33981)
Assay: Mps-1 Kinase Assay (TR-FRET)
Type: biochemical
Conditions: 10 μM ATP, 1 μM biotinylated peptide substrate, 60 min at 22° C., read-out: Mps-1 Inhibition, IC50 in M
In short: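 GST-Mps-1 (full length, N-term tag) ~1 nM final, linear-range adjusted per lot; biotinylated peptide substrate. Detection: Eu-anti-pSer/Thr donor → SA-XLent acceptor TR-FRET, 1 h, 22° C. Inhibition of kinase activity.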

Sequence of human full length recombinant Mps-1 kinase (P33981 whole entry): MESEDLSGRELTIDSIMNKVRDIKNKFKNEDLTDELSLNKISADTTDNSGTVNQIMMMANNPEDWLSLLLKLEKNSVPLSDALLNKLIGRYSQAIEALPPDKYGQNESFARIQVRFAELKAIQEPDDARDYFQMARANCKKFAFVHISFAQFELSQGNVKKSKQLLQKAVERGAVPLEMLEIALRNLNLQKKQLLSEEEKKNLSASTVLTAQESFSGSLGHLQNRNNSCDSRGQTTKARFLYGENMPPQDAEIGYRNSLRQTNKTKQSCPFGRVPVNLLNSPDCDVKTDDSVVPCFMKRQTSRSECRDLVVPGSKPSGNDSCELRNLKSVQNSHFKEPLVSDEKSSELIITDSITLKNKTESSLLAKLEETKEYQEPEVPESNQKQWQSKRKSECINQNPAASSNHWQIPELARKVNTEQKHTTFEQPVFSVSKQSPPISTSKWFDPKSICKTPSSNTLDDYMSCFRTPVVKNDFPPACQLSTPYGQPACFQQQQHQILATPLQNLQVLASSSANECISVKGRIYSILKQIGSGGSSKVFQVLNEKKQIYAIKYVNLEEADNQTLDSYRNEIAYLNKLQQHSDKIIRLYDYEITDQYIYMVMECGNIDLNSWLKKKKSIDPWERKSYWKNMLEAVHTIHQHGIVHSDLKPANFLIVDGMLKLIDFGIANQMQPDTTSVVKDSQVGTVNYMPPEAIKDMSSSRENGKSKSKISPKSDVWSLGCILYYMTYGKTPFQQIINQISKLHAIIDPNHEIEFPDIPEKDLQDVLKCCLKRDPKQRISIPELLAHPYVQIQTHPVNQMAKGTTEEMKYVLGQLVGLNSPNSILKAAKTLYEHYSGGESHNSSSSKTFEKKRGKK

With `O=C(NCc1ccc(F)cc1)c1ccc(-c2ccc3nc(Nc4ccc(C(=O)N5CC(O)C5)cc4OCC(F)(F)F)nn3c2)cc1` [Example 04.16, N-(4-fluorobenzyl)-4-[2-({4-[(3-hydroxyazetidin-1-yl)carbonyl]-2-(2,2,2-trifluoroethoxy)phenyl}amino)[,2]triazolo[1,5-a]pyridin-6-yl]benzamide] the IC50 was at most 1 nM.

With `O=C(NCc1ccc(F)cc1)c1ccc(-c2ccc3nc(Nc4ccc(C(=O)N5CCOCC5)cc4OCC(F)(F)F)nn3c2)cc1` [Example 04.17, N-(4-fluorobenzyl)-4-(2-{[4-(morpholin-4-ylcarbonyl)-2-(2,2,2-trifluoroethoxy)phenyl]amino}[,2]-triazolo[1,5-a]pyridin-6-yl)benzamide] the IC50 was at most 1 nM.

In the case of `COc1cc(N2CCN(C)CC2)ccc1Nc1nc2ccc(-c3ccc(C(=O)NCc4ccc(F)cc4)cc3)cn2n1` [Example 04.18, N-(4-fluorobenzyl)-4-(2-{[2-methoxy-4-(4-methylpiperazin-1-yl)phenyl]amino}[,2]triazolo[1,5-a]pyridin-6-yl)benzamide], the IC50 is reported as at most 1 nM.

`COc1cc(N2CCN(C(C)(C)C)CC2)ccc1Nc1nc2ccc(-c3ccc(C(=O)NCc4ccc(F)cc4)cc3)cn2n1` [Example 04.19, 4-(2-{[4-(4-tert-butylpiperazin-1-yl)-2-methoxyphenyl]amino}[,2]triazolo[1,5-a]pyridin-6-yl)-N-(4-fluorobenzyl)benzamide] showed an IC50 of at most 1 nM.

For `O=C(NCc1ccc(F)cc1)c1ccc(-c2ccc3nc(Nc4ccc(C(=O)N5CC6(COC6)C5)cc4F)nn3c2)cc1` [Example 04.20, N-(4-fluorobenzyl)-4-(2-{[2-fluoro-4-(2-oxa-6-azaspiro[3.3]hept-6-ylcarbonyl)phenyl]amino}[,2]triazolo[1,5-a]pyridin-6-yl)benzamide], the IC50 was at most 1 nM.

Work on `O=C(NCc1ccc(F)cc1)c1ccc(-c2ccc3nc(Nc4ccc(C(=O)N5CCOCC5)cc4F)nn3c2)cc1` [Example 04.21, N-(4-fluorobenzyl)-4-(2-{[2-fluoro-4-(morpholin-4-ylcarbonyl)phenyl]amino}[,2]-triazolo[1,5-a]pyridin-6-yl)benzamide] yielded an IC50 of at most 1 nM.

`O=C(NCc1ccc(F)cc1)c1ccc(-c2ccc3nc(Nc4ccc(C(=O)N5CCOCC5)cc4OCC(F)F)nn3c2)cc1` [Example 04.22, 4-(2-{[2-(2,2-difluoroethoxy)-4-(morpholin-4-ylcarbonyl)phenyl]amino}[,2]-triazolo[1,5-a]pyridin-6-yl)-N-(4-fluorobenzyl)benzamide] gave an IC50 of at most 1 nM.

`O=C(NCc1ccc(F)cc1)c1ccc(-c2ccc3nc(Nc4ccc(C(=O)N5CCOCC5)cc4C(F)(F)F)nn3c2)cc1` [Example 04.23, N-(4-fluorobenzyl)-4-(2-{[4-(morpholin-4-ylcarbonyl)-2-(trifluoromethyl)phenyl]amino}[,2]triazolo[1,5-a]pyridin-6-yl)benzamide] gave an IC50 of at most 1 nM.

`COc1cc(CN2CCN(C)CC2)ccc1Nc1nc2ccc(-c3ccc(C(=O)NCc4ccc(F)cc4)cc3)cn2n1` [Example 04.24, N-(4-fluorobenzyl)-4-[2-({2-methoxy-4-[(4-methylpiperazin-1-yl)methyl]phenyl}amino)[,2]triazolo[1,5-a]pyridin-6-yl]benzamide] was tested, and the IC50 was at most 1 nM.

`COc1cc(CN2CCOCC2)ccc1Nc1nc2ccc(-c3ccc(C(=O)NCc4ccc(F)cc4)cc3)cn2n1` [Example 04.25, N-(4-fluorobenzyl)-4-(2-{[2-methoxy-4-(morpholin-4-ylmethyl)phenyl]amino}[,2]-triazolo[1,5-a]pyridin-6-yl)benzamide] gave an IC50 of at most 1 nM.

`COc1cc(OC2CCN(C)CC2)ccc1Nc1nc2ccc(-c3ccc(C(=O)NCc4ccc(F)cc4)cc3)cn2n1` [Example 04.26, N-(4-fluorobenzyl)-4-[2-({2-methoxy-4-[(1-methylpiperidin-4-yl)oxy]phenyl}amino)[,2]triazolo[1,5-a]pyridin-6-yl]benzamide] gave an IC50 of at most 1 nM.

In the case of `CSc1cc(OC2CCN(C)CC2)ccc1Nc1nc2ccc(-c3ccc(C(=O)NCc4ccc(F)cc4)cc3)cn2n1` [Example 04.27, N-(4-fluorobenzyl)-4-[2-({4-[(1-methylpiperidin-4-yl)oxy]-2-(methylsulfanyl)phenyl}amino)[,2]triazolo[1,5-a]pyridin-6-yl]benzamide], the IC50 is reported as at most 1 nM.

Work on `Cc1cc(C(=O)N2CC3(COC3)C2)ccc1Nc1nc2ccc(-c3ccc(C(=O)NCc4ccc(F)cc4)cc3)cn2n1` [Example 04.28, N-(4-fluorobenzyl)-4-(2-{[2-methyl-4-(2-oxa-6-azaspiro[3.3]hept-6-ylcarbonyl)phenyl]amino}[,2]triazolo[1,5-a]pyridin-6-yl)benzamide] yielded an IC50 of at most 1 nM.

`Cc1cc(C(=O)N2CCOCC2)ccc1Nc1nc2ccc(-c3ccc(C(=O)NCc4ccc(F)cc4)cc3)cn2n1` [Example 04.29, N-(4-fluorobenzyl)-4-(2-{[2-methyl-4-(morpholin-4-ylcarbonyl)phenyl]amino}[,2]-triazolo[1,5-a]pyridin-6-yl)benzamide] was tested, and the IC50 was at most 1 nM.

With `O=C(NCc1ccc(F)cc1)c1ccc(-c2ccc3nc(Nc4ccc(C(=O)N5CC6(COC6)C5)cc4OC(F)(F)F)nn3c2)cc1` [Example 04.30, N-(4-fluorobenzyl)-4-(2-{[4-(2-oxa-6-azaspiro[3.3]hept-6-ylcarbonyl)-2-(trifluoromethoxy)phenyl]amino}[,2]-triazolo[1,5-a]pyridin-6-yl)benzamide] the IC50 was at most 1 nM.

`O=C(NCc1ccc(F)cc1)c1ccc(-c2ccc3nc(Nc4ccc(C(=O)N5CCOCC5)cc4OC(F)(F)F)nn3c2)cc1` [Example 04.31, N-(4-fluorobenzyl)-4-(2-{[4-(morpholin-4-ylcarbonyl)-2-(trifluoromethoxy)phenyl]amino}[,2]-triazolo[1,5-a]pyridin-6-yl)benzamide] gave an IC50 of at most 1 nM.

Work on `COc1ccc(C(=O)N2CCOCC2)cc1Nc1nc2ccc(-c3ccc(C(=O)NCc4ccc(F)cc4)cc3)cn2n1` [Example 04.32, N-(4-fluorobenzyl)-4-(2-{[2-methoxy-5-(morpholin-4-ylcarbonyl)phenyl]amino}[,2]-triazolo[1,5-a]pyridin-6-yl)benzamide] yielded an IC50 of at most 1 nM.

Work on `Cc1nc(N2CCOCC2)ccc1Nc1nc2ccc(-c3ccc(C(=O)NCc4ccc(F)cc4)cc3)cn2n1` [Example 04.33, N-(4-fluorobenzyl)-4-(2-{[2-methyl-6-(morpholin-4-yl)pyridin-3-yl]amino}[,2]triazolo[1,5-a]pyridin-6-yl)benzamide] yielded an IC50 of at most 1 nM.

For `Cc1nc(N2CCCC2)ccc1Nc1nc2ccc(-c3ccc(C(=O)NCc4ccc(F)cc4)cc3)cn2n1` [Example 04.34, N-(4-fluorobenzyl)-4-(2-{[2-methyl-6-(pyrrolidin-1-yl)pyridin-3-yl]amino}[,2]triazolo[1,5-a]pyridin-6-yl)benzamide], the IC50 was at most 1 nM.

`COc1cc(C(=O)N2CC(F)C2)ccc1Nc1nc2ccc(-c3ccc(C(=O)NCc4ccc(F)cc4)cc3)cn2n1` [Example 04.35, 4-[2-({4-[(3-fluoroazetidin-1-yl)carbonyl]-2-methoxyphenyl}amino)[,2]triazolo[1,5-a]pyridin-6-yl]-N-(4-fluorobenzyl)benzamide] showed an IC50 of at most 1 nM.

For `COc1cc(C(=O)N2CCOCC2)ccc1Nc1nc2ccc(-c3ccc(C(=O)NCc4ccc(Cl)cc4)cc3)cn2n1` [Example 05.01, N-(4-chlorobenzyl)-4-(2-{[2-methoxy-4-(morpholin-4-ylcarbonyl)phenyl]amino}[,2]-triazolo[1,5-a]pyridin-6-yl)benzamide], the IC50 was at most 1 nM.

— patent publication US9555022B2, “Substituted triazolopyridines” (Bayer Intellectual Property GmbH, priority 2010, dated 2017)
